# Measured values reported in patent US20240277743A1, “RESTORING PHYSIOLOGY WITH SMALL MOLECULE MIMICS OF MISSING PROTEINS” (The Board of Trustees Of The University Of Illinois, priority 2014, published 2024).
# How the values were obtained:
# Type in all cases: cell-based, Saccharomyces cerevisiae
# trk1Δtrk2Δ S. cerevisiae = test: Growth of trk1Δtrk2Δ yeast on normal potassium YPAD agar plates containing AmB; settings: 125 nM in agar, normal potassium (10 mM)
# Protocol: Yeast cell lines and growth conditions. Wild type S. cerevisiae (ATCC 9763), and trk1Δtrk2Δ S. cerevisiae (SGY 1528) were maintained with yeast peptone adenine dextrose (YPAD) growth media consisting of 10 g/L yeast extract, 20 g/L peptone, 20 g/L dextrose, 0.015 g/L adenine hemisulfate salt (final potassium concentration=10 mM). For solid media, 20 g/L agar was added to this same mixture. To culture trk1 Δtrk2Δ S. cerevisiae, additional potassium was added as potassium chloride (100 mM KCl). The media was adjusted to pH 5.0 using citric acid. After autoclave sterilization, dextrose was subsequently added as a sterile 20% w/v solution in water (dextrose solutions were filter-sterilized using a 0.22 μm filter). Liquid cultures were incubated at 30° C. on a rotary shaker (200 rpm). Solid cultures were maintained at 30° C. in an incubator. For solid media containing AmB (AK Scientific), the media was allowed to cool for 15 minutes before addition of AmB at a final concentration of 125 nM. AmB was added to the media as a solution in DMSO. Plates were examined for growth after 24-48 hours of incubation.
# trk1Δtrk2Δ yeast [1] = test: Functional complementation of a protein with a small molecule assay (rescue broth microdilution)
# Text: Broth microdilution minimum inhibitory concentration (MIC) assay. The protocol for the MIC broth microdilution assay was adapted from the Clinical and Laboratory Standards Institute document M27-A2 and performed as previously described. Gray, K. C. et. al. Proc. Natl. Acad. Sci. U.S.A. 109, 2234-2239 (2012); Palacios, D. S. et al. J. Am. Chem. Soc. 129, 13804-13805 (2007).
# Functional complementation of a protein with a small molecule assay. The protocol for the rescue broth microdilution assay was conducted as described in the MIC assay above with the following additions: trk1atrk2Δ yeast were grown in high potassium (100 mM) YPAD liquid media overnight and transferred to normal potassium YPAD liquid media containing vehicle or the indicated concentration of AmB.
# trk1Δtrk2Δ cells = test: Cell viability assay (propidium iodide staining); settings: 125 nM AmB, 24 hours, FIG. 2H
# Protocol: Cell viability assay. WT and trk1 Δtrk2Δ cells were inoculated in high potassium (100 mM KCl) YPAD. Starter cultures were grown at 30° ° C. for 14-15 hours. Cells were then cultured in high potassium YPAD at 30° ° C. for 2-2.5 hours. 100 μL of a 0.25 mg/mL propidium iodide (PI. Sigma-Aldrich P4864) solution was prepared. After 2-2.5 hours, cells were centrifuged at 800 g for 5 minutes, at 23° C. The supernatant was decanted, cells were resuspended in 40 mL of high potassium YPAD, vortexed, and centrifuged. The wash step was repeated. After pouring off the supernatant, cells were resuspended in 15 mL of high potassium YPAD, vortexed, and diluted to an OD600 of 0.5. To set one (WT, WT+PI, trk1Δtrk2Δ, and trk1Δtrk2Δ+PI) and set two (WT+PI+AmB, trk1 Δtrk2Δ+PI+AmB), 26.4 μL of DMSO were added to 1 mL aliquots of WT and trk1Δtrk2Δ, and incubated at 30° C. for 30 minutes. A 1% w/v low gelling temperature agarose (Sigma-Aldrich A9414) was prepared in normal potassium (10 mM) YPAD. When set one incubation completed, cells were pulse centrifuged, supernatant was removed, and resuspended in normal potassium YPAD to wash. […] The total number of PI stained cells was subtracted from the total cells recorded, and divided by total cells to give % viability. At least 200 cells were recorded per treatment group and 4 independent sets of data were obtained.
# trk1Δtrk2Δ yeast [2] = test: Sustainable restoration of cell growth assay (max OD600, doubling time)
# Protocol: Sustainable restoration of cell growth assay. Wild type and trk1 Δtrk2Δ yeast were treated as described in the functional complementation experiment described above, with the trk1 Δtrk2Δ yeast treated with 125 nM AmB. The OD600 was measured every hour for 24 hours, including a reading at time zero. Wild type yeast were then streaked onto normal potassium YPAD agar plates and AmB-rescued TrklAtrk2Δ yeast were streaked onto AmB-containing (0.125 μM) normal potassium YPAD agar plates. These agar plates were then incubated at 30° ° C. for about 48 hours. The same procedure was then repeated for over 42 days, measuring the max OD600 and doubling time every three days. Doubling time was determined using the following equation: Td=(t2−t1)×[log(2)/log (q2/q1)], where t2 and t1 represent the time at the two points and q2 and q1 represent the OD600 values in the exponential phase of growth (OD600 from 0.2 to 0.6).
smiles,measurement,setting,value
"C[C@@H]1[C@H](O)[C@@H](C)/C=C/C=C/C=C/C=C/C=C/C=C/C=C/[C@H](O[C@@H]2O[C@H](C)[C@@H](O)[C@H](N)[C@@H]2O)C[C@@H]2O[C@](O)(C[C@@H](O)C[C@@H](O)[C@H](O)CC[C@@H](O)C[C@@H](O)CC(=O)O[C@H]1C)C[C@H](O)[C@H]2C(=O)O [AmB, amphotericin B]",restoration of growth of the trk1Δtrk2Δ mutant on agar plate,trk1Δtrk2Δ S. cerevisiae,restored vigorous growth
same,trk1Δtrk2Δ yeast cell growth in broth dilution assay,trk1Δtrk2Δ yeast [1]; at or above the minimum inhibitory concentration,no growth
same,trk1Δtrk2Δ yeast cell growth in broth dilution assay,"trk1Δtrk2Δ yeast [1]; intermediate concentrations, normal potassium YPAD, FIG. 2D",dose-dependent increase of growth
same,cell viability of AmB-rescued trk1Δtrk2Δ cells versus wild type,trk1Δtrk2Δ cells,Equivalent levels of cell viability
same,doubling time of AmB-rescued trk1Δtrk2Δ cells relative to wild type,trk1Δtrk2Δ yeast [2]; 125 nM AmB,1.7 times longer
same,sustainability of cell growth of AmB-rescued trk1Δtrk2Δ cells,"trk1Δtrk2Δ yeast [2]; 125 nM AmB, passed every 3 days for over a month, FIG. 2I","sustained, vigorous cell growth"
same,maximum cell density (max OD600) of treated trk1Δtrk2Δ cells,"trk1Δtrk2Δ yeast [2]; liquid culture after 24 h, versus wild type, FIG. 2G",matched that of the wild type
